# How the values were obtained:
# [1] = tested on: human monocyte-derived macrophages (hMDMs); assay: hMDM radioactive cell binding assay, with or without LPS; assay type: cell-based; conditions: LPS 100 ng/mL; for tracer signal in LPS-challenged hMDMs after co-incubation with GLPG1205: GLPG1205 block
# Method: CD14^+ monocytes isolated from PBMCs from human peripheral blood were plated 10×10^6 cells per 10 cm petri dish in 8-10 mL complete growth medium (for quantitative PCR) or 10^6-10^5 cells per well in 1 mL complete growth medium into one 12-well plate per blood donor (radioactive cell binding) and incubated 7-10 days at 5% CO2 in air at 37° C. These cells were then treated with 100 ng/mL LPS in complete growth medium 24 hr or 72 hr prior to experimentation according to previous working concentrations in the literature.
# Human monocyte-derived macrophages (hMDMs) were plated at a concentration of 10^6-10^5 cells per well in media (RPMI 1640+glutamax with 10% FBS, 1% anti-anti, and 50 ng/mL M-CSF) into one 12-well plate per blood donor. Once cells adhered to the plate (˜24 hr), 100 ng/mL lipopolysaccharides (LPS) was applied to two of the three rows of the plate. 24 hr later, the [^11C]GLPG38, [^11C]MGX-10S, or [^18F]MGX-110S radiotracer was prepared. The radiotracer was diluted in RPMI 1640 without FBS or antibiotic to yield a 30 mL solution such that the amount of activity was 50 μCi/mL for ^11C or 2 μCi/mL for ^18F. Additionally, a blocking solution was prepared consisting of 35 μM GLPG1205 dissolved in DMSO and added to RPMI 1640 media+tracer solution. The 12-well plates were incubated for 30 min at […] and 5% CO2 in air. Following incubation, the radioactive media was removed and replaced with 500 μL fresh media, and a 10 min efflux was conducted. After efflux, the media was collected into a gamma counting tube to measure supernatant, and the cells were washed with PBS, trypsinized, resuspended in RPMI 1640+glutamax+10% FBS, then pipetted into gamma counting tubes at 500 μL volume.
# Radioactivity levels bound to cells were measured in a gamma counter (Hidex Oy, Helsinki, Finland), and cell counts were recorded using Trypan blue and an automatic cell counter to normalize radioactivity levels to cell count.
# GPR84 [2] = biological target: T1, GPR84 (Mus musculus, UniProt Q8CIM5); assay: Ex vivo biodistribution (gamma counting) of GPR84 tracer in LPS- vs saline-treated mice; conditions: LPS 10 mg/kg
# T1 construct: tissue Jackson Laboratories; host or cells: female C57BL/6J mice (LPS, saline, EAE or naive): brain, spinal cord and peripheral organs
# T1 sequence (Q8CIM5 whole entry): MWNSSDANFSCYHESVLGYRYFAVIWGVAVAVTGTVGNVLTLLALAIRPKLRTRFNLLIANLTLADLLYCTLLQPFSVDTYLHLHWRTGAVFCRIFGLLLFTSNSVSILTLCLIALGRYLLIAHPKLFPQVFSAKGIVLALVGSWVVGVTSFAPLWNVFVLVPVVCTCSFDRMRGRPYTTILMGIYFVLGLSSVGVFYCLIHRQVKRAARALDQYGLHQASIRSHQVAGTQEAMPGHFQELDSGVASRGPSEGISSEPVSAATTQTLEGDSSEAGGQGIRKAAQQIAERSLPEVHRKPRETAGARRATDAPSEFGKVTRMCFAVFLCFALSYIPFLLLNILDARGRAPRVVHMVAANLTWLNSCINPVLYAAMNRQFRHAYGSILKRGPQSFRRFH
# Method: FIGS. 11A-11B show ex vivo biodistribution and autoradiography. […] At 20 min postinjection, animals were perfused with saline and tissues were collected, weighed, and gamma-counted. […] Statistical analysis was performed using “Unpaired t test with Welch correction”, *=P<0.05. […] Cb=cerebellum, Ctx=cortex, Str=striatum, H=hippocampus, Mb=midbrain, Ob=olfactory bulb, and BS=brain stem.
# (§1) To determine KD of GLPG38, a competitive binding assay was performed using a membrane preparation from cells expressing GPR84-Gi in addition to [^3H]G9543, a known GPR84 antagonist. [^11C]GLPG38 was then radiosynthesized via [^11C]methylation of desmethyl precursor using [^11C]methyl iodide. […] Dynamic 60 min PET/CT imaging was performed 24 hr following LPS-administration using [^11C]GLPG38. Subsequently, mice were perfused with PBS to remove blood, and radioactive signal was assessed in CNS and peripheral tissues via gamma counting. Ex vivo autoradiography of sagittal mouse brain sections was conducted to obtain high resolution images of [^11C]GLPG38 binding. To investigate alterations in GPR84 mRNA expression, quantitative polymerase-chain reaction was performed using mouse brain tissue and human monocyte-derived macrophage cells stimulated with LPS 24 hr prior to RNA extraction.
# GPR84 [3] = biological target: T1, GPR84; assay: Dynamic PET/CT of brain in LPS-induced systemic inflammation vs saline, with or without GLPG1205 block; assay type: in vivo; conditions: LPS 10 mg/kg, 24 h
# Method: as §1
# The count densities were averaged for all volumes of interest at each time point to obtain a time-activity curve (TAC). The TACs were normalized to injected dose, as measured by a CRC-15 PET dose calibrator (Capintec Inc.), and expressed as % injected dose per gram (% ID/g), assuming 1 g/mL. CT was performed in GNEXT depth of interaction (DOI) dual-layer detector system. Scintica VivoQuant software was used to visualize radiotracer uptake and define the 3D volumes of interest. 3D maximum intensity projection (MIP) PET/CT images were created using IRW software.
# A range of doses (0.65, 0.75, and 0.90 mg/kg) of GLPG1205 were used to investigate whether the blocking was dose-dependent. […] GLPG1205 was injected intra-venously 10 min prior to radiotracer injection (n=4).
# [4] = tested on: GPR84-positive immune cells; assay: PET/CT in B16F1 melanoma brain metastasis model, with or without anti-PD-1 and anti-CTLA-4; assay type: in vivo, mouse; conditions: anti-PD-1 and anti-CTLA-4, day 9
# Method: Six-to-eight-week-old female C57BL/6 mice were injected subcutaneously with 0.25×10^6 B16F1 melanoma cells on the right flank to generate extracranial tumors. After two days of extracranial tumor inoculation, 5×10^3 B16F1 melanoma cells were stereotactically injected into the striatum. Five days after intracranial tumor inoculation, mice were randomized into treatment (n=4) vs no treatment (n=4) groups based on the intracranial bioluminescence signals and monitored daily starting on day 5 for extracranial tumor volume changes. On days 5, 7 and 9 post-intracranial tumor inoculation, mice in the treatment group were treated with anti-PD-1 and anti-CTLA-4 (200 μg via intraperitoneal injection). T2-weighted MRI (Bruker) with a CryoProbe was performed on day 9 after intracranial tumor inoculation to identify brain tumor region of interest. Following MRI, mice underwent PET/CT imaging on the GNEXT PET/CT (Sofie). 100-125 μCi of [^18F]MGX-110S was injected for a 10-min static PET scan followed by CT. Mice were then perfused and organs of interest were dissected and analyzed via gamma counting. Region of interest analysis of the PET images was performed using a 3D volume drawing mode around the intracranial and extracranial tumors (Inveon Research Workspace).
Structure (SMILES),tracer binding in LPS-challenged hMDMs compared to unstimulated cells [1],tracer signal in LPS-challenged hMDMs after co-incubation with GLPG1205 [1],"gamma counting signal in brain, LPS-injected vs vehicle mice (GPR84 [2]; p=0.0023)","gamma counting tracer binding in adipose tissue, LPS vs vehicle mice (GPR84 [2]; p=0.007)",brain PET signal in LPS-treated vs saline-treated mice at 40-60 min post injection (GPR84 [3]),"PET signal in intracranial tumor, untreated vs immunotherapy-treated mouse [4]"
Cc1cc2c(cc1O[11CH3])CCn1c-2c(C)c(OC[C@@H]2COCCO2)cc1=O [[^11C]GLPG38],significantly higher binding,reduced to baseline,increased signal in the brain,significant increase in tracer binding,significantly elevated,
O=c1nc(OC[C@@H]2COCCO2)cc2n1CCc1cc([18F])ccc1-2 [^18F-MGX-110S],significantly higher binding,reduced to baseline,,,,significantly elevated signal
